Experiments:
[1] = molecular target: T1, TMEM16A (transmembrane protein 16A) (Homo sapiens, UniProt Q5XXA6); assay: YFP iodide-influx fluorescence quenching in TMEM16A-expressing FRT cells; Eact-stimulated short-circuit current; assay type: cell-based
T1 construct: gene ANO1
T1 sequence (Q5XXA6 1-986): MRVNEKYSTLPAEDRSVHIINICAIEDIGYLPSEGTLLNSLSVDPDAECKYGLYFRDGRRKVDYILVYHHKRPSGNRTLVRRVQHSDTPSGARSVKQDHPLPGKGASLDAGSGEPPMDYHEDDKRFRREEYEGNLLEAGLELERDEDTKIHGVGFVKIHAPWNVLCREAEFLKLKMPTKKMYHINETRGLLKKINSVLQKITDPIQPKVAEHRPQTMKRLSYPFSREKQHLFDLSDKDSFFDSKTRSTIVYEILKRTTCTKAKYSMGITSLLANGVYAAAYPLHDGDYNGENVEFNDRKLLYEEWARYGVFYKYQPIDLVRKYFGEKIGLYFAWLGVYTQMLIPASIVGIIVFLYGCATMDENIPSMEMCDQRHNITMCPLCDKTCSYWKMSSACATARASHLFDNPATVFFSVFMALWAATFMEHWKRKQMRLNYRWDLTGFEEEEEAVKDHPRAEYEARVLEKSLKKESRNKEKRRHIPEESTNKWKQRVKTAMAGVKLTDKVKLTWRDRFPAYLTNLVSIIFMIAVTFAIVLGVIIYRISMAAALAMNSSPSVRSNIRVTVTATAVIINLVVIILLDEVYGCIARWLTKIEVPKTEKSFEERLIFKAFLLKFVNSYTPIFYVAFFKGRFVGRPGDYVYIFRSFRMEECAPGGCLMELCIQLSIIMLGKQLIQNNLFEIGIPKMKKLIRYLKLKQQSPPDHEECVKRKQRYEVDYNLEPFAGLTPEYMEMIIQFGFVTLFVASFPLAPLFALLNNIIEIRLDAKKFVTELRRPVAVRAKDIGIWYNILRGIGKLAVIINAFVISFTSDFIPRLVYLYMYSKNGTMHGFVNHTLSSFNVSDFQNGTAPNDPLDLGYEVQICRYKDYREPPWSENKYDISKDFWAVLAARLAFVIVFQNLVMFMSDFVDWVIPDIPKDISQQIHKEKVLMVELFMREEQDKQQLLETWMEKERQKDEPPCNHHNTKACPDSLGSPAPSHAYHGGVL

[2] = molecular target: CFTR (cystic fibrosis transmembrane conductance regulator) (Homo sapiens, UniProt P13569); assay: short-circuit current in HT-29 cells, FSK-stimulated; also inhibits current with genistein (direct activator, IC50 […]); assay type: cell-based
Chain of CFTR (cystic fibrosis transmembrane conductance regulator) (P13569 whole entry): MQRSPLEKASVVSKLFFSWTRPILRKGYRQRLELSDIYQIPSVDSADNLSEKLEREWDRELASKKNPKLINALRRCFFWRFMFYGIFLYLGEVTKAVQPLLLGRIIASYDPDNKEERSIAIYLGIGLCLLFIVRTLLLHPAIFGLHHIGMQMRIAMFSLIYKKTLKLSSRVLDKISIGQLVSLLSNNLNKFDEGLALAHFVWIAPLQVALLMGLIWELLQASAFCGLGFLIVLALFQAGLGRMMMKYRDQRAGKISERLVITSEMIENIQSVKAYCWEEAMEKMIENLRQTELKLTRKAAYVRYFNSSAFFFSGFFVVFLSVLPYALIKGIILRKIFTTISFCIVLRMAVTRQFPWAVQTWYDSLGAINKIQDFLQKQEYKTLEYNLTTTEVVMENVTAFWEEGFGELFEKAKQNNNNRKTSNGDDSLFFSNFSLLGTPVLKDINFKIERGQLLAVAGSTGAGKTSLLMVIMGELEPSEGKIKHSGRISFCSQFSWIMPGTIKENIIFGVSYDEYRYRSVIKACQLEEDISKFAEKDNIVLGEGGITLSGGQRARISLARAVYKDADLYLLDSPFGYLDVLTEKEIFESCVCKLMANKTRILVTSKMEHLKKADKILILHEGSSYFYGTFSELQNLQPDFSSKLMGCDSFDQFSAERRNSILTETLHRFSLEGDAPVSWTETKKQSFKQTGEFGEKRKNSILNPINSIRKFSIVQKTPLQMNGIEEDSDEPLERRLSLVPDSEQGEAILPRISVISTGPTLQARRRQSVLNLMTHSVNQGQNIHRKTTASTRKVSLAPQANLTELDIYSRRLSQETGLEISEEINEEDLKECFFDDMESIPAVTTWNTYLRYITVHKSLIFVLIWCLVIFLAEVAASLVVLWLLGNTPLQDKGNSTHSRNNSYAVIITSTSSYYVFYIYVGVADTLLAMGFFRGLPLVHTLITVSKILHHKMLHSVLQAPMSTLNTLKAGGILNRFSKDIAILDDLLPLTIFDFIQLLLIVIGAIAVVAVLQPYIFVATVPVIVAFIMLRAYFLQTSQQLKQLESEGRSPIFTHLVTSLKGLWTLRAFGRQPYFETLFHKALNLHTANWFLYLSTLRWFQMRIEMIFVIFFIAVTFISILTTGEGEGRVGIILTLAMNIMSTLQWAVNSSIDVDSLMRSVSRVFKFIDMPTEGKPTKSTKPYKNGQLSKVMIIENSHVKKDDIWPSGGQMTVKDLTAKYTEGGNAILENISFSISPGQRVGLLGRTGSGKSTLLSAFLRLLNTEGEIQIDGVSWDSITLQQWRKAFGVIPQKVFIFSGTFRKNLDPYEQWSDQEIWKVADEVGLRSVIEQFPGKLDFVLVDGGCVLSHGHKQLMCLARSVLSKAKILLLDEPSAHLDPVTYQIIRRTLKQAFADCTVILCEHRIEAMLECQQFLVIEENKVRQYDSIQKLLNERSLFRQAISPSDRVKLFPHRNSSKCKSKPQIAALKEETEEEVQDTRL

CC1=CC(=O)c2c(O)cccc2C1=O [plumbagin]
IC50 [1]: ~12.5 µM
IC50 [2]: 3.9 µM

From paper PMC6795057, “Plumbagin Prevents Secretory Diarrhea by Inhibiting CaCC and CFTR Channel Activities” (Frontiers in Pharmacology, 2019)
